# In US12691086B2, “Methods of treating systemic sclerosis and idiopathic pulmonary fibrosis” (HORIZON THERAPEUTICS IRELAND DAC, priority 2022, dated 2026):
# What was measured:
# [1] = system: idiopathic pulmonary fibrosis; details: Palmer et al. Chest 2018; cited from earlier work
# [2] = Solubility of the different polymorphs in phosphate buffer; type: physicochemical; details: for solubility, concentration versus time: pH 7.4 phosphate buffer, 25° C.; for equilibrium solubility relative to Form 1: 24 hours
# Experimental: The solubility of the different polymorphs was determined at pH 7.4 in phosphate buffer at 25° C. Samples were analyzed as a function of time for each form to determine the equilibrium values. The residual solids from each sample were analyzed to verify that the form was unchanged during the experiment. The concentration (mg/mL) versus time data is listed below for each form: […]
# [3] = Physical stability of solid state forms, examined by FTIR; type: physicochemical; details: 80° C./75% RH, 1 week (7 days), open glass vials
# Experimental: The physical stability of Forms 1, 2, and 3 was investigated at 80° C./75% RH in order to determine if interconversion was observed. The samples were examined by FTIR after stressing 1 week in open glass vials.
# [4] = Dynamic Vapor Sorption (DVS); type: physicochemical
# Experimental: Moisture sorption/desorption isotherms are recorded on a DVS-1 from SURFACE MEASUREMENT SYSTEMS. Two cycles are run at 25° C., in which the Relative Humidity (RH) is stepped from 0 to 95% and back to 0%. The data is evaluated with the software DVSWin V. 2.15.
SMILES,"24 hour solubility result, greater than Form 1 ([2]; 24 hour)","solubility, concentration versus time ([2]; 1 hr) [mg/mL]","solubility, concentration versus time ([2]; 2 hr) [mg/mL]","solubility, concentration versus time ([2]; 3 hr) [mg/mL]","changes in FTIR spectrum (physical stability, interconversion) [3]",equilibrium solubility relative to Form 1 [2],Reversible water uptake ([4]; 25° C.),Reversible water uptake ([4]; between 0 and 95% RH),rate of decline in forced vital capacity (FVC) compared with placebo [1]
Cc1noc(-c2ccc(-c3ccc(C4(C(=O)O)CC4)cc3)cc2)c1NC(=O)O[C@H](C)c1ccccc1 [BMS-986020],–,–,–,–,–,–,–,–,significantly slowed
"COc1ccc(C(=O)NC2(C(=O)O)Cc3ccccc3C2)cc1OCCc1cccc(C)c1 [Form 2, 2-(4-methoxy-3-(3-methylphenethoxy)benzamido)-2,3-dihydro-1H-indene-2-carboxylic acid]",more than 30%,0.034,0.039,0.043,unchanged FTIR,–,–,–,–
"COc1ccc(C(=O)NC2(C(=O)O)Cc3ccccc3C2)cc1OCCc1cccc(C)c1 [Form 3, 2-(4-methoxy-3-(3-methylphenethoxy)benzamido)-2,3-dihydro-1H-indene-2-carboxylic acid]",–,0.083,0.093,0.095,unchanged FTIR,more than double,–,–,–

# More lines, main results first:
"24 hour solubility result, greater than Form 1 ([2]; 24 hour)","solubility, concentration versus time ([2]; 1 hr) [mg/mL]","solubility, concentration versus time ([2]; 2 hr) [mg/mL]","solubility, concentration versus time ([2]; 3 hr) [mg/mL]","changes in FTIR spectrum (physical stability, interconversion) [3]",equilibrium solubility relative to Form 1 [2],Reversible water uptake ([4]; 25° C.),Reversible water uptake ([4]; between 0 and 95% RH),SMILES,rate of decline in forced vital capacity (FVC) compared with placebo [1]
–,0.042,0.041,0.042,unchanged FTIR,–,less than 1%,~ −0.1 % w/w,"COc1ccc(C(=O)NC2(C(=O)O)Cc3ccccc3C2)cc1OCCc1cccc(C)c1 [Form 1, 2-(4-methoxy-3-(3-methylphenethoxy)benzamido)-2,3-dihydro-1H-indene-2-carboxylic acid]",–
–,0.079,0.089,0.105,–,more than double,–,–,"COc1ccc(C(=O)NC2(C(=O)O)Cc3ccccc3C2)cc1OCCc1cccc(C)c1 [Form 4, 2-(4-methoxy-3-(3-methylphenethoxy)benzamido)-2,3-dihydro-1H-indene-2-carboxylic acid]",–
